Blank lines part the entries; values can stand above or below the molecule they belong to.
Legend:
[1] = molecular target: T1, Bromodomain-containing protein 4 (Homo sapiens, UniProt O60885); assay: Inhibition of poly His-tagged BRD4 BD1 (unknown origin) ([…] residues) by TR-FRET assay
[2] = molecular target: T1, Bromodomain-containing protein 4; assay: Inhibition of poly His-tagged BRD4 BD2 (unknown origin) (348 to 455 residues) by TR-FRET assay
[3] = molecular target: T1, Bromodomain-containing protein 4; assay: Inhibition of poly His-tagged BRD4 BD1 (unknown origin) ([…] residues) by BROMOscan assay
[4] = molecular target: T1, Bromodomain-containing protein 4; assay: Inhibition of poly His-tagged BRD4 BD2 (unknown origin) (348 to 455 residues) by BROMOscan assay
[5] = Antiproliferative activity against human Triple-negative breast cancer cells assessed as cell growth inhibition incubated for 4 days by CellTiter Glo assay; assay type: functional, cell-based; settings: 96 h
[6] = molecular target: Protein cereblon/Bromodomain-containing protein 4 (Homo sapiens, UniProt O60885+Q96SW2); assay: Protac activity at CRBN/BRD4 in human SUM149PT assessed as induction of BRD4 degradation incubated for 18 hrs by immunoblot analysis; assay type: cell-based
[7] = molecular target: T1, Bromodomain-containing protein 4; assay: Inhibition of recombinant human BRD4 BD1 measured after 2 hrs by TR-FRET assay
[8] = molecular target: T1, Bromodomain-containing protein 4; assay: Inhibition of recombinant human BRD4 BD2 measured after 2 hrs by TR-FRET assay
[9] = molecular target: Poly [ADP-ribose] polymerase 1 (Homo sapiens) (UniProt P09874); assay: Inhibition of PARP1 (unknown origin) using NAD+ as substrate incubated for 60 mins by ELISA
[10] = molecular target: T1, Bromodomain-containing protein 4; assay: Binding affinity to BRD4 BD1 (unknown origin) assessed as dissociation constant by ITC analysis
[11] = molecular target: von Hippel-Lindau disease tumor suppressor/Bromodomain-containing protein 4 (Homo sapiens, UniProt O60885+P40337); assay: Protac activity at BRD4/VHL E3 ligase in human SU-DHL-4 cells assessed as induction of BRD4 degradation incubated for 14 hrs by immunoblot analysis; assay type: cell-based
[12] = species: Homo sapiens; assay: Selectivity for BRD4 BD1 (unknown origin) over BRD4 BD2 (unknown origin) assessed as fold change
[13] = molecular target: T1, Bromodomain-containing protein 4; assay: Binding affinity to BRD4 BD2 (unknown origin) assessed as dissociation constant by ITC analysis
[14] = molecular target: Histone deacetylase 3 (Homo sapiens, UniProt O15379); assay: Inhibition of recombinant human HDAC3 using Boc-Lys(Ac)-AMC as substrate preincubated for 15 mins followed by substrate addition and measured after 60 mins by fluorescence based assay
[15] = molecular target: T1, Bromodomain-containing protein 4; assay: Inhibition of GST-tagged BRD4 BD1 (unknown origin) using H4(1 to 21 residues) biotinylated peptide as substrate at 10 uM incubated for 3 hrs by HTFR assay

von Hippel-Lindau disease tumor suppressor/Bromodomain-containing protein 4, sequence (P40337 whole entry, looked up, other chains not shown): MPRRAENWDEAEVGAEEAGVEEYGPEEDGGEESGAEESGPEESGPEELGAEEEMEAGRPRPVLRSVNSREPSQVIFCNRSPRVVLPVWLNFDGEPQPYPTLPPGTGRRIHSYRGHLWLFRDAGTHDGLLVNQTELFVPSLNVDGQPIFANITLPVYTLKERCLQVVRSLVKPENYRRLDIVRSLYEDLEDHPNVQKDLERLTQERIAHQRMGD
Histone deacetylase 3, sequence (O15379 whole entry, the tested form may be a part): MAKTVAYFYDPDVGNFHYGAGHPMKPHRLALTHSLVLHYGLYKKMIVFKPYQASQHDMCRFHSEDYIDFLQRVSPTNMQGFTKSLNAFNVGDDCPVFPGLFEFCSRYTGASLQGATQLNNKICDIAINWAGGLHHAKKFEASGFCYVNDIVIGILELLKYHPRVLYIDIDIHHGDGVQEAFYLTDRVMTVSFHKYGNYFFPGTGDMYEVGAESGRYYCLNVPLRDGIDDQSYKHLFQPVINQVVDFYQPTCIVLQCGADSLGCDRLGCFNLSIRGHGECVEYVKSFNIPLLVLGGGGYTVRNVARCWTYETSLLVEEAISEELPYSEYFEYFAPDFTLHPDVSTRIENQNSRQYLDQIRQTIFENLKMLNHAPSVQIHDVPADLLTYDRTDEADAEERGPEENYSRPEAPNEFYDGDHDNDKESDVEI
Protein cereblon/Bromodomain-containing protein 4, sequence (Q96SW2 whole entry, looked up, other chains not shown): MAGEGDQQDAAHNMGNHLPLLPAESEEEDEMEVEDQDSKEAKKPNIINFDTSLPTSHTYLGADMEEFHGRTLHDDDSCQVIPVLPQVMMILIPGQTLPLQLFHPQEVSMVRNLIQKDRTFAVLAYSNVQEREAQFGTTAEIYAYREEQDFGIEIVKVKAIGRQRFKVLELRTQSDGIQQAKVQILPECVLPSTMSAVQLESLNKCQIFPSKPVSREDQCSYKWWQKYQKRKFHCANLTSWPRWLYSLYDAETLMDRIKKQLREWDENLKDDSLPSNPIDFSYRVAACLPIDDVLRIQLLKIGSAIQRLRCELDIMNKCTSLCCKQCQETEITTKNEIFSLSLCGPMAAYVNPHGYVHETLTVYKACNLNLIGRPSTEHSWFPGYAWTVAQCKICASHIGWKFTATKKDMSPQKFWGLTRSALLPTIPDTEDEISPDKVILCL
Poly [ADP-ribose] polymerase 1 (Homo sapiens), sequence (P09874 whole entry): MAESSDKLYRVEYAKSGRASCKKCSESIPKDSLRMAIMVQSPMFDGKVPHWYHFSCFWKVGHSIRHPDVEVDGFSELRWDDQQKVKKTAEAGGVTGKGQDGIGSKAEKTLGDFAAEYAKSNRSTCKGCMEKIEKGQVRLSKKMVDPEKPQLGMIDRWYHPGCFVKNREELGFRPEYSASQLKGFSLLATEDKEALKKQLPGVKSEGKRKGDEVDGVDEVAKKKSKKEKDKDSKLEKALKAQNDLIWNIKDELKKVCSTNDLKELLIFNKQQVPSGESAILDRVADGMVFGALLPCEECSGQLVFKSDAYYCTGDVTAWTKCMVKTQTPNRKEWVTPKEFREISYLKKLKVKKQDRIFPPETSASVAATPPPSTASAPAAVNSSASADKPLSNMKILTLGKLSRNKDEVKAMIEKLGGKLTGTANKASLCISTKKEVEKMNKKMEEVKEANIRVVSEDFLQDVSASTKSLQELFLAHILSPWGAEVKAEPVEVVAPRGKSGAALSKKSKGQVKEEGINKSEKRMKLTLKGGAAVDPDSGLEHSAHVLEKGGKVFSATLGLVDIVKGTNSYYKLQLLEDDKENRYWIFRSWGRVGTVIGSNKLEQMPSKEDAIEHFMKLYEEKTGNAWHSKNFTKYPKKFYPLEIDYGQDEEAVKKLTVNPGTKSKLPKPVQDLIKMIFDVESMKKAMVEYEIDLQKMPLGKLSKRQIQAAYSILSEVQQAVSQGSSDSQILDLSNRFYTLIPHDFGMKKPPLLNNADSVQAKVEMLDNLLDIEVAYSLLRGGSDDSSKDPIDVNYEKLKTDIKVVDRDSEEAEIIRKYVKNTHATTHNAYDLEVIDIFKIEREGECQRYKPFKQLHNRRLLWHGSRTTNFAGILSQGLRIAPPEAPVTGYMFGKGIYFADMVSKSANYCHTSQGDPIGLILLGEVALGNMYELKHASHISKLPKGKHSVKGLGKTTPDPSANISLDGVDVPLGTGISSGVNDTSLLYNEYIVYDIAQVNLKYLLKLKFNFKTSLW

Structure (SMILES): CCn1nc(C2CC2)cc1Nc1nc(C(=O)NCCCOCCOCCOCCCNc2cccc3c2C(=O)N(C2CCC(=O)NC2=O)C3=O)nc2[nH]c3cc(-c4c(C)noc4C)c(OC)cc3c12 (configuration not stated)
- IC50 [5]: < 0.01 µM

Structure (SMILES): Cc1sc2c(c1C)C(c1ccc(Cl)cc1)=N[C@@H](CC(=O)NCCCCNC(=O)COc1cccc3c1C(=O)N(C1CCC(=O)NC1=O)C3O)c1nnc(C)n1-2 (some centres not stated)
- EC50 [6]: 0.43 µM

Structure (SMILES): COc1cc(OC)c2c(=O)[nH]c(-c3ccc(OCCOc4ccccc4C(N)=O)cc3)nc2c1
- IC50 [7]: 0.44 µM
- IC50 [8]: 0.379 µM
- inhibition [9]: < 60%

Structure (SMILES): CC(=O)N[C@H](CSCCCCCCNC(=O)C[C@H]1N=C(c2ccc(Cl)cc2)c2c(sc(C)c2C)-n2c(C)nnc21)C(=O)N1C[C@@H](O)C[C@@H]1C(=O)NCc1ccc(-c2scnc2C)cc1
- Kd [10]: 0.044 µM

Structure (SMILES): COCc1nc2cnc3cc(-c4c(C)noc4C)c(OC[C@H]4CCNC4)cc3c2n1[C@H](C)c1ccccc1
- Selectivity ratio [12]: > 130

Structure (SMILES): CC1=C(C)C2C(c3ccc(Cl)cc3)N[C@@](C)(CC(=O)NCCOCCOCCOCC(=O)N[C@H](C(=O)N3C[C@H](O)C[C@H]3C(=O)NCc3ccc(-c4scnc4C)cc3)C(C)(C)C)c3nnc(C)n3C2S1 (some centres not stated)
- Kd [10]: 0.382 µM
- Kd [13]: 0.12 µM

More lines, now with the values ahead:

- Kd [1]: 0.301 µM
- Kd [2]: 0.002 µM
Structure (SMILES): CC(=O)N1c2ccc(-c3cc[nH]n3)cc2[C@H](Nc2ccc(C#N)cc2)C[C@@H]1C

- IC50 [3]: 0.027 µM
- IC50 [4]: 0.00042 µM
Structure (SMILES): COC(=O)c1ccc(N[C@@H]2C[C@H](C)N(C(C)=O)c3ccc(-c4cccc(NC(C)=O)c4)cc32)cc1

- DC50 [11]: 10.8 µM
Structure (SMILES): Cc1sc2c(c1C)C(c1ccc(Cl)cc1)=N[C@@H](CC(=O)NCCOCCOCCNC(=O)c1cccc(S(=O)(=O)Nc3ccc(C)c4c(C#N)c[nH]c34)c1)c1nnc(C)n1-2

- Selectivity ratio [12]: > 300
Structure (SMILES): CC(=O)Nc1c(F)cc(C(=O)N[C@H]2CC[C@H](O)CC2)cc1O[C@@H](C)c1ccccc1

- IC50 [14]: 0.005 µM
- inhibition [15]: 88%
Structure (SMILES): Cc1noc(C)c1-c1ccc2c(c1)C(Cc1ccc(F)cc1)CN2CCCCCCC(=O)NO (configuration not stated)

— ChEMBL document CHEMBL5226295, “Targeting Bromodomain and Extraterminal Proteins for Drug Discovery: From Current Progress to Technological Development” (J Med Chem, 2021)
